# Source: patent US10351591B2, “Polypeptides, peptides, and proteins functionalized by alkylation of thioether groups via ring-opening reactions” (The Regents of the University of California, priority 2015, dated 2019)
# Key:
# [1] = Poly(S-alkyl-L-methionine) stability studies in aqueous buffers; type: physicochemical; details: aqueous buffers ranging in pH from 5 to 9; 37° C., 24 h; S-alkyl-Met/Met ratio by 1H NMR
# Description: The mixture was incubated on a 37° C. H2O bath for 24 h. […] The retentate was lyophilized.
# [2] = potent nucleophile 2-mercaptopyridine; 37° C., 24 h
substance,measurement,setting,value
Poly(S-(3-azido-2-hydroxypropyl)-L-methionine sulfonium chloride) [compound 4],stability in aqueous buffers,[1],good stability
same,stability against dealkylation by nucleophile,[2],quite stable
